Tests used:
[1] = system: NDM-1 Enterobacter cloacae; test: Carbon utilisation assay; format: cell-based; conditions: M9 minimal medium, 0.5% (w/v) carbon source
Method: (§1) New Delhi Metallo-β-lactamase 1 (NDM-1) Escherichia coli, NDM-1 Klebsiella pneumoniae, and NDM-1 Enterobacter cloacae were isolated from patients with intestinal CRE colonisation from the Imperial College Healthcare NHS Trust via rectal swab (REC ref. 19/LO/0112). The species were assigned by matrix assisted laser desorption ionization-time of flight (MALDI-TOF) mass spectrometry and later confirmed with 16S rRNA gene sequencing. CRE status was determined using X-pert Carba-R PCR detection (Cepheid, Sunnyvale, CA, USA), (Otter, J. A. et al. Detecting carbapenemase-producing Enterobacterales (CPE): an evaluation of an enhanced CPE infection control and screening programme in acute care. J Antimicrob Chemother 75, 2670-2676 (2020)).
(§2) Growth of CRE isolates on sole carbon or nitrogen sources was tested by inoculating each CRE isolate into a minimal medium supplemented with the nutrient of interest. First, CRE isolates were passaged from frozen glycerol stocks on Reasoner's 2A agar (R2A) plates. Cells were then suspended in M9 minimal media to a turbidity of 42% using a Turbidimeter (Biolog Inc.), then diluted a further 1 in 6 to inoculate the carbon or nitrogen utilisation assays. M9 minimal media contained the following (at final concentrations): 22 mM KH2PO4, 42 mM Na2HPO4, 9 mM NaCl, 0.49 mM MgSO4·7H2O, 0.09 mM CaCl2), 0.011 mM FeSO4·7H2O. For the carbon assays the M9 minimal medium was also supplemented with 0.1% (w/v) NH4Cl (as the nitrogen source) and the carbon sources were individually tested at 0.5% (w/v) concentration. For the nitrogen assays the M9 minimal medium was also supplemented with 0.5% (w/v) glucose (as the carbon source) and the nitrogen sources were individually tested at 0.1% (w/v) concentration. Cultures were incubated anaerobically and aerobically in a plate reader and OD600 readings were collected every 15 minutes for 24 hours.
(§3) Growth curves were analysed in Python (v3.6.5) using the AMiGA software (Midani, F. S., Collins, J. & Britton, R. A. AMiGA: Software for Automated Analysis of Microbial Growth Assays. mSystems 6, e0050821 (2021)). Growth of each isolate was measured with 6 wells from 2-3 independent experiments. Growth curves were normalised to the no substrate control using the subtraction method. AMiGA performed Gaussian Process regression to test differential growth between the substrate and the no substrate control. The functional difference in the OD (and its credible interval) was also computed between the substrate and the no substrate control.

NDM-1 Escherichia coli [2] = test: Carbon utilisation assay; format: cell-based; conditions: M9 minimal medium, 0.5% (w/v) carbon source
Method: as §1, §2, §3

[3] = system: NDM-1 Klebsiella pneumoniae; test: Carbon utilisation assay; format: cell-based; conditions: M9 minimal medium, 0.5% (w/v) carbon source
Method: as §1, §2, §3

[4] = system: NDM-1 Enterobacter cloacae; test: Nitrogen utilisation assay; format: cell-based; conditions: aerobic; M9 minimal medium with glucose, 0.1% (w/v) nitrogen source
Method: as §1, §2, §3

NDM-1 Escherichia coli [5] = test: Nitrogen utilisation assay; format: cell-based; conditions: aerobic; M9 minimal medium with glucose, 0.1% (w/v) nitrogen source
Method: as §1, §2, §3

[6] = system: NDM-1 Klebsiella pneumoniae; test: Nitrogen utilisation assay; format: cell-based; conditions: aerobic; M9 minimal medium with glucose, 0.1% (w/v) nitrogen source
Method: as §1, §2, §3

[7] = system: NDM-1 Enterobacter cloacae; test: Nutrient preference assay (nutrient mixture); format: cell-based; conditions: M9 with […] of each nutrient, up to 24 hours
Method: as §1
(§4) CRE isolates were passaged once from frozen glycerol stocks on R2A plates. Cells were suspended in M9 minimal media to a turbidity of 42% using a Turbidimeter (Biolog Inc.), then diluted 1 in 6 to inoculate the nutrient preference assays. M9 minimal media was supplemented with 0.015% of each of the following: L-arabinose, D-fructose, L-fucose, D-galactose, D-glucose, D-mannose, D-ribose, D-xylose, N-acetylglucosamine, D-maltose, sucrose, D-trehalose, L-alanine, L-arginine, L-aspartate, L-glutamate, L-glycine, L-isoleucine, L-leucine, L-lysine, L-methionine, L-phenylalanine, L-proline, L-threonine, L-tryptophan, L-tyrosine, L-valine, uracil, and succinate. Cultures were incubated anaerobically and aerobically in a plate reader and OD600 readings were collected every 15 minutes for 24 hours. Cultures were also incubated anaerobically and aerobically for 24 h and samples were collected at 0, 4, 8, and 24 hours post-inoculation for 1H-NMR spectroscopy. Changes in nutrients and metabolites by CRE isolates was compared to the sterile media control over time using a two-way mixed ANOVA followed by pairwise comparisons with Bonferroni correction. […]

NDM-1 Escherichia coli [8] = test: Nutrient preference assay (nutrient mixture); format: cell-based; conditions: M9 with […] of each nutrient, up to 24 hours
Method: as §1, §4

[9] = system: NDM-1 Klebsiella pneumoniae; test: Nutrient preference assay (nutrient mixture); format: cell-based; conditions: M9 with […] of each nutrient, up to 24 hours
Method: as §1, §4

[10] = system: vancomycin-resistant E. faecalis; test: VRE nutrient utilization protocol: nitrogen sources, leave-one-out; format: cell-based, Enterococcus faecalis; conditions: aerobic; leave-one-out from nitrogen source mixture in minimal medium
Method: (§5) VRE minimal media consists of potassium phosphate monobasic (4 g/L), potassium phosphate dibasic (14 g/L), sodium citrate (1 g/L), magnesium sulphate (0.2 g/L), ammonium sulphate (2 g/L), adenosine (0.04 g/L), thymine (0.04 g/L), Kao and Michayluk vitamin solution [Sigma, K3129, 50× Stock](5×), glucose (1 g/L) and amino acid solution [Sigma, R7131, RPMI-1640, 50×](25×). If the study was performed under anaerobic conditions, fumarate (5.2 g/L) was added to increase growth of VRE strains. Carbon-free minimal media was prepared by leaving out glucose while nitrogen-free minimal media was prepared without the amino acid solution. Media was filter sterilized with a 0.22 micron filter and used immediately aerobically or degassed overnight if used anaerobically.
(§6) VRE strains were grown on R2A overnight before the cells were suspended in 0.9% saline to an OD of 0.38 (λ=595 nm). A 10% dilution of the cell suspension was prepared using VRE minimal media to achieve a final well OD of […] (λ=595 nm) greater than the sterile media OD. Both carbon and nitrogen source utilization were evaluated by adding the inoculated media and a filter-sterilised nutrient source solution into a well in a 1:1 ration to a final volume of 100 μL in aerobic tests and 200 μL in anaerobic tests. Carbon sources were tested individually and compared to a carbon-free control. To test nitrogen source utilization, a nitrogen source solution was prepared containing L-alanine (2 g/L), L-arginine (2.5 g/L, L-asparagine (0.71 g/L), L-aspartate (0.25 g/L), L-cysteine (0.625 g/L), L-glutamate (0.25 g/L), L-Glycine (0.125 g/L), L-histidine (0.1875 g/L), L-isoleucine (0.625 g/L), L-leucine (0.625 g/L), L-lysine HCl (0.5 g/L), L-methionine (0.1875 g/L), L-phenylalanine (0.1875 g/L), L-proline (0.25 g/L), L-serine (0.375 g/L), L-threonine (0.25 g/L), L-tryptophan (0.0625 g/L), L-tyrosine (0.29 g/L), L-valine (0.25 g/L), N-acetylglucosamine (2 g/L), and uracil (2.5 g/L). To test the strains' ability to utilize individual nitrogen sources, separate solutions were prepared eliminating one nitrogen source each. The change in growth compared to the complete nitrogen source solution control was used to determine nitrogen utilization. All carbon and nitrogen sources were tested in a technical triplicate for each biological replicate. Aerobic plates were incubated with a plate seal while anaerobic plates were not. The aerobic plate reader was set to read the plate (λ=595 nm, 37° C., 22 flashes per well, orbital shaking of 100 rpm for 15 s prior to each read) every 15 minutes for 24 hours. The anaerobic plate reader read the plate (λ=595 nm, 37° C., stationary) every 15 minutes for 24 hours.

[11] = system: vancomycin-resistant E. faecium; test: as above; format: cell-based, Enterococcus faecium; conditions: aerobic; leave-one-out from nitrogen source mixture in minimal medium
Method: as §5, §6

[12] = system: vancomycin-resistant E. faecium; test: VRE nutrient utilization protocol: carbon sources; format: cell-based, Enterococcus faecium; conditions: aerobic; VRE minimal medium
Method: as §5, §6

Row | Structure (SMILES) | Use as sole carbon source to support E. cloacae growth ([1]; anaerobic) | Use as sole carbon source to support E. coli growth (NDM-1 Escherichia coli [2]; anaerobic) | Use as sole carbon source to support K. pneumoniae growth ([3]; anaerobic) | Use as sole carbon source to support E. cloacae growth ([1]; aerobic) | Use as sole carbon source to support E. coli growth (NDM-1 Escherichia coli [2]; aerobic) | Use as sole carbon source to support K. pneumoniae growth ([3]; aerobic) | Use as sole nitrogen source to support E. cloacae growth [4] | Use as sole nitrogen source to support E. coli growth (NDM-1 Escherichia coli [5]) | Use as sole nitrogen source to support K. pneumoniae growth [6] | Utilisation of nutrient by E. cloacae from nutrient mixture (1H-NMR) ([7]; anaerobic) | Utilisation of nutrient by E. coli from nutrient mixture (1H-NMR) (NDM-1 Escherichia coli [8]; anaerobic) | Utilisation of nutrient by K. pneumoniae from nutrient mixture (1H-NMR) ([9]; anaerobic) | Utilisation of nutrient by E. cloacae from nutrient mixture (1H-NMR) ([7]; aerobic) | Utilisation of nutrient by E. coli from nutrient mixture (1H-NMR) (NDM-1 Escherichia coli [8]; aerobic) | Utilisation of nutrient by K. pneumoniae from nutrient mixture (1H-NMR) ([9]; aerobic) | Use as nitrogen source to support E. faecalis growth [10] | Use as nitrogen source to support E. faecium growth [11] | Use as sole carbon source to support E. faecium growth [12]
1 | O=C[C@H](O)[C@@H](O)[C@H](O)CO [xylose, D-xylose] | could use | could use | could use |  |  |  |  |  |  |  |  |  |  |  |  |  |  | 
2 | C[C@H](N)C(=O)O [alanine, L-alanine] |  |  |  | able to grow | able to grow | able to grow | able to grow | able to grow | able to grow | not utilised | not utilised | not utilised |  |  |  |  |  | 
3 | NCCCC[C@H](N)C(=O)O [lysine, L-lysine] |  |  |  |  |  |  | able to grow | able to grow | able to grow | produced low levels | high utilisation | high utilisation | produced low levels | moderate utilisation | high utilisation | could use | could use | 
4 | O=C[C@H](O)[C@@H](O)[C@@H](O)CO [arabinose, L-arabinose] | could use | could use | could use |  |  |  |  |  |  |  |  |  |  |  |  |  |  | could use
5 | N[C@@H](Cc1c[nH]c2ccccc12)C(=O)O [tryptophan, L-tryptophan] |  |  |  |  |  |  |  | able to grow |  | not utilised | moderate utilisation | not utilised | not utilised | high utilisation | not utilised | could use | could use | could use
6 | N[C@@H](CCC(=O)O)C(=O)O [glutamate, L-glutamate] |  |  |  | able to grow |  | able to grow | able to grow | able to grow | able to grow |  |  |  | moderate utilisation | moderate utilisation | moderate utilisation | could use | could use | 
